{"source": "patent US8415342B2", "about": "“Besifloxacin ophthalmic composition for the treatment or control of infection” (Bausch & Lomb Incorporated, priority 2008, dated 2013)", "format_in_all_cases": "cell-based", "key": {"[1]": {"system": "S. pneumoniae topoisomerase mutants", "experiment": "MIC against defined topoisomerase mutants", "settings": "Streptococcus pneumoniae"}, "[2]": {"system": "S. aureus topoisomerase mutants", "experiment": "MIC against defined topoisomerase mutants", "settings": "Staphylococcus aureus"}, "[3]": {"system": "E. coli topoisomerase mutants", "experiment": "MIC against defined topoisomerase mutants", "settings": "Escherichia coli", "protocol": "Furthermore, an experiment was conducted to assess the mechanism of action of besifloxacin in S. pneumoniae, S. aureus, and E. coli via step selections for isolates with decreased susceptibility to besifloxacin, as well as by testing for altered susceptibilities of ciprofloxacin-resistant variants of all three species containing genetically defined mutations in the quinolone resistance determining regions (QRDRs) of structural genes encoding DNA gyrase and topoisomerase IV (Table 2)."}, "H. influenzae": {"system": "H. influenzae", "experiment": "MIC and MBC:MIC ratio, recent ocular isolates", "settings": "H. influenzae (N = 40), recent ocular isolates", "text": "(§1) The success of in vivo antimicrobial action depends to a large extent on the host's defense mechanisms, which ultimately sequester and kill the microorganisms that have been reduced by the bacteriostatic/bactericidal action of the antibacterial agent. Thus, it is also of interest to profile the bactericidal activity of antimicrobial agents. The assessment of in vitro bactericidal activity can be accomplished in multiple ways, for example, the time-kill method or the determination of the minimum bactericidal concentration (MBC). […] Bactericidal agents are characterized by low MBC:MIC ratios."}, "S. epidermidis [4]": {"system": "S. epidermidis", "experiment": "MIC and MBC:MIC ratio, recent ocular isolates", "settings": "Staphylococcus epidermidis; S. epidermidis (N = 15), recent ocular isolates", "text": "as §1"}, "S. aureus [5]": {"system": "S. aureus", "experiment": "MIC and MBC:MIC ratio, recent ocular isolates", "settings": "Staphylococcus aureus; S. aureus (N = 30), recent ocular isolates"}, "S. pneumoniae": {"system": "S. pneumoniae", "experiment": "MIC and MBC:MIC ratio, recent ocular isolates", "settings": "S. pneumoniae (N = 35), recent ocular isolates"}, "[6]": {"system": "Staphylococcus haemolyticus", "experiment": "MIC, CLSI broth microdilution, clinical isolates", "settings": "Staphylococcus haemolyticus (N = 101)"}, "Staphylococcus warneri": {"system": "Staphylococcus warneri", "experiment": "MIC, CLSI broth microdilution, clinical isolates", "settings": "Staphylococcus warneri (N = 50)"}, "Staphylococcus hominis": {"system": "Staphylococcus hominis", "experiment": "MIC, CLSI broth microdilution, clinical isolates", "settings": "Staphylococcus hominis (N = 50)"}, "[7]": {"system": "Lancefield group C, F, G streptococci", "experiment": "MIC, CLSI broth microdilution, clinical isolates", "settings": "G streptococci (N = 50)"}, "Viridans streptococci": {"system": "Viridans streptococci", "experiment": "MIC, CLSI broth microdilution, clinical isolates", "settings": "Viridans streptococci (N = 156)"}, "Citrobacter koseri": {"system": "Citrobacter koseri", "experiment": "MIC, CLSI broth microdilution, clinical isolates", "settings": "Citrobacter koseri (N = 100)"}, "Klebsiella oxytoca": {"system": "Klebsiella oxytoca", "experiment": "MIC, CLSI broth microdilution, clinical isolates", "settings": "Klebsiella oxytoca (N = 50)"}, "Legionella pneumophila": {"system": "Legionella pneumophila", "experiment": "microbe, parasite or virus in culture", "settings": "Legionella pneumophila"}, "Moraxella catarrhalis": {"system": "Moraxella catarrhalis", "experiment": "MIC, CLSI broth microdilution, clinical isolates", "settings": "Moraxella catarrhalis (N = 101)"}, "Morganella morganii": {"system": "Morganella morganii", "experiment": "MIC, CLSI broth microdilution, clinical isolates", "settings": "Morganella morganii (N = 51)"}, "[8]": {"system": "baseline pathogens of bacterial conjunctivitis patients", "experiment": "MIC of baseline clinical trial isolates, Studies 373, 433, 434 (all species)", "settings": "clinical isolates from Asia"}, "S. aureus [9]": {"system": "S. aureus", "experiment": "MIC of clinical trial isolates, Studies 373, 433, 434", "settings": "Staphylococcus aureus, MRSA, S. aureus MRSA-CS, N 9; read-out: MIC90 (due to limited isolates, highest MIC value is given)"}, "S. epidermidis [10]": {"system": "S. epidermidis", "experiment": "MIC of clinical trial isolates, Studies 373, 433, 434", "settings": "Staphylococcus epidermidis, read-out: MIC90"}}, "data": [{"compound": "COc1c(N2C[C@@H]3CCCN[C@@H]3C2)c(F)cc2c(=O)c(C(=O)O)cn(C3CC3)c12", "note": "[Moxifloxacin]", "values": [{"measurement": "MIC", "setting": "[1]; S. pneumoniae Wild type", "result": 0.25, "unit": "µg/mL"}, {"measurement": "MIC", "setting": "[1]; S. pneumoniae gyrA S81F", "result": 0.5, "unit": "µg/mL"}, {"measurement": "MIC", "setting": "[1]; S. pneumoniae parC S79Y", "result": 0.25, "unit": "µg/mL"}, {"measurement": "MIC", "setting": "[1]; S. pneumoniae parC S79Y + gyrA S81F", "result": 4, "unit": "µg/mL"}, {"measurement": "MIC", "setting": "[2]; S. aureus Wild type", "result": 0.06, "unit": "µg/mL"}, {"measurement": "MIC", "setting": "[2]; S. aureus parC S80F (or E84K)", "result": 0.5, "unit": "µg/mL"}, {"measurement": "MIC", "setting": "[2]; S. aureus parC S80F + gyrA S84L", "result": 2, "unit": "µg/mL"}, {"measurement": "MIC", "setting": "[3]; E. coli Wild type", "result": 0.06, "unit": "µg/mL"}, {"measurement": "MIC", "setting": "[3]; E. coli gyrA D87Y (or S83L)", "result": 0.5, "unit": "µg/mL"}, {"measurement": "MIC", "setting": "[3]; E. coli gyrA S83L + parC S80R", "result": 4, "unit": "µg/mL"}, {"measurement": "MIC", "setting": "[3]; E. coli gyrA S83L + parE H445L", "result": 0.5, "unit": "µg/mL"}, {"measurement": "MIC", "setting": "[3]; E. coli gyrB D426N", "result": 0.12, "unit": "µg/mL"}, {"measurement": "MIC Range", "setting": "H. influenzae", "result": "0.008 to 0.03", "unit": "µg/mL"}, {"measurement": "MIC50", "setting": "H. influenzae; Haemophilus influenzae", "result": 0.015, "unit": "µg/mL"}, {"measurement": "MIC90", "setting": "H. influenzae; Haemophilus influenzae", "result": 0.03, "unit": "µg/mL"}, {"measurement": "MIC50", "setting": "S. epidermidis [4]", "result": 0.06, "unit": "µg/mL"}, {"measurement": "MIC90", "setting": "S. epidermidis [4]", "result": "> 8", "unit": "µg/mL"}, {"measurement": "MIC50", "setting": "S. aureus [5]", "result": 0.06, "unit": "µg/mL"}, {"measurement": "MIC Range", "setting": "S. pneumoniae", "result": "0.03 to 2", "unit": "µg/mL"}, {"measurement": "MIC50", "setting": "S. pneumoniae; Streptococcus pneumoniae", "result": 0.06, "unit": "µg/mL"}, {"measurement": "MIC90", "setting": "S. pneumoniae; Streptococcus pneumoniae", "result": 0.12, "unit": "µg/mL"}, {"measurement": "MIC50", "setting": "[6]", "result": 1, "unit": "µg/mL"}, {"measurement": "MIC90", "setting": "[6]", "result": 8, "unit": "µg/mL"}, {"measurement": "MIC50", "setting": "Staphylococcus warneri", "result": 0.06, "unit": "µg/mL"}, {"measurement": "MIC90", "setting": "Staphylococcus warneri", "result": 4, "unit": "µg/mL"}, {"measurement": "MIC50", "setting": "Staphylococcus hominis", "result": 1, "unit": "µg/mL"}, {"measurement": "MIC90", "setting": "Staphylococcus hominis", "result": 4, "unit": "µg/mL"}, {"measurement": "MIC Range", "setting": "[7]", "result": "0.03 to 1", "unit": "µg/mL"}, {"measurement": "MIC50", "setting": "[7]; read-out: MIC50", "result": 0.12, "unit": "µg/mL"}, {"measurement": "MIC90", "setting": "[7]; read-out: MIC90", "result": 0.12, "unit": "µg/mL"}, {"measurement": "MIC Range", "setting": "Viridans streptococci", "result": "0.03 to 4", "unit": "µg/mL"}, {"measurement": "MIC50", "setting": "Viridans streptococci; read-out: MIC50", "result": 0.12, "unit": "µg/mL"}, {"measurement": "MIC50", "setting": "Citrobacter koseri", "result": 0.03, "unit": "µg/mL"}, {"measurement": "MIC50", "setting": "Klebsiella oxytoca", "result": 0.06, "unit": "µg/mL"}, {"measurement": "MIC90", "setting": "Klebsiella oxytoca", "result": 2, "unit": "µg/mL"}, {"measurement": "MIC Range", "setting": "Klebsiella oxytoca", "result": "0.03 to 8", "unit": "µg/mL"}, {"measurement": "MIC50", "setting": "Legionella pneumophila", "result": 0.03, "unit": "µg/mL"}, {"measurement": "MIC90", "setting": "Legionella pneumophila", "result": 0.06, "unit": "µg/mL"}, {"measurement": "MIC50", "setting": "Moraxella catarrhalis", "result": 0.03, "unit": "µg/mL"}, {"measurement": "MIC90", "setting": "Moraxella catarrhalis", "result": 0.03, "unit": "µg/mL"}, {"measurement": "MIC Range", "setting": "Moraxella catarrhalis", "result": "0.015 to 0.12", "unit": "µg/mL"}, {"measurement": "MIC90", "setting": "Morganella morganii", "result": "> 8", "unit": "µg/mL"}, {"measurement": "MIC90", "setting": "[8]", "result": 2, "unit": "µg/mL"}, {"measurement": "MIC90", "setting": "S. aureus [9]", "result": 0.06, "unit": "µg/mL"}, {"measurement": "MIC90", "setting": "S. epidermidis [10]; MRSE, S. epidermidis MRSE-CR, N 24", "result": "> 8", "unit": "µg/mL"}, {"measurement": "MIC90", "setting": "S. epidermidis [10]; S. epidermidis MSSE-CR, N 10", "result": 8, "unit": "µg/mL"}]}]}
